Experimental data as given in PubChem BioAssay (NCI).
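Tested at 5 concentrations; 48 h exposure; 96-well plates; endpoints linearly interpolated, else capped at highest concentration. At the GI50, growth is halved. TGI is the concentration that stops growth completely.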 *1 amine or outer side, *2 acyl side, *3 side chain or, on linkers, in order; H or OH if unused. Where a SMILES comes first, the peptide text is derived from it. Bridges are numbered along the chain shown (N, C = ends). [ ]: non-standard residue; d: D form. The star is where a group is joined. Phe(3,5-F2) = N[C@@H](Cc1cc(F)cc(F)c1)C(=O)O; Pro(4R-Me) = C[C@H]1CN[C@H](C(=O)O)C1; aThr = C[C@H](O)[C@H](N)C(=O)O; Pip = O=C(O)[C@@H]1CCCCN1; X10 = Fc1cc(C2CC2)ccc1N*; CO = O=C([*:1])[*:2]

Columns and labels:
Test in all cases: NCI tumour cell line growth inhibition, 48 h
OVCAR-8 ovarian = system: OVCAR-8 ovarian
CCRF-CEM leukemia = system: CCRF-CEM leukemia
SK-MEL-28 melanoma = system: SK-MEL-28 melanoma
MDA-MB-231 breast = system: MDA-MB-231 breast
SW-620 colon = system: SW-620 colon
K-562 leukemia = system: K-562 leukemia
PC-3 prostate = system: PC-3 prostate
786-0 renal = system: 786-0 renal
A549 NSCLC = system: A549 NSCLC
UO-31 renal = system: UO-31 renal

SMILES | TGI (OVCAR-8 ovarian) [µM] | TGI (CCRF-CEM leukemia) [µM] | TGI (SK-MEL-28 melanoma) [µM] | TGI (MDA-MB-231 breast) [µM] | TGI (SW-620 colon) [µM] | TGI (K-562 leukemia) [µM] | TGI (PC-3 prostate) [µM] | TGI (786-0 renal) [µM] | TGI (A549 NSCLC) [µM] | TGI (UO-31 renal) [µM] | GI50 (OVCAR-8 ovarian) [µM] | GI50 (CCRF-CEM leukemia) [µM] | GI50 (SK-MEL-28 melanoma) [µM] | GI50 (MDA-MB-231 breast) [µM] | GI50 (SW-620 colon) [µM] | GI50 (K-562 leukemia) [µM] | GI50 (PC-3 prostate) [µM] | GI50 (786-0 renal) [µM] | GI50 (A549 NSCLC) [µM] | GI50 (UO-31 renal) [µM]
O=C1CC(NC(=O)C(F)(F)F)c2c(Br)sc(N3CCNCC3)c21 (stereo not given) | > 100 | > 100 | > 100 | > 100 | > 100 | > 100 | > 100 | > 100 | > 100 | > 100 | – | – | – | – | – | – | – | – | – | –
Cc1ccc(CN2CCC(C(=O)Nc3ccc(-c4cc5ccccc5[nH]4)cc3)CC2)o1 | > 100 | > 100 | > 100 | > 100 | > 100 | > 100 | > 100 | > 100 | > 100 | > 100 | > 100 | > 100 | 88.9 | > 100 | > 100 | > 100 | > 100 | 98.9 | > 100 | > 100
NS(=O)(=O)c1ccc2c(c1)OCCOCCOCCOCCO2 | > 100 | > 100 | > 100 | > 100 | > 100 | > 100 | > 100 | > 100 | > 100 | > 100 | – | – | – | – | – | – | – | – | – | –
C[C@@H]1C[C@H]2C(=O)O[C@@H](C)[C@H](NC(=O)[C@H](Cc3cc(F)cc(F)c3)NC(=O)Nc3ccc(C4CC4)cc3F)C(=O)N3CCC[C@H]3C(=O)N3CCCC[C@H]3C(=O)N[C@@H](C)C(=O)N2C1 ({X10-CO}-[Phe(3,5-F2)][aThr]P[Pip]A[Pro(4R-Me)]; ester 2-C) | > 100 | > 100 | 4.99 | 1.3 | > 100 | > 52.3 | > 36 | > 38.4 | > 100 | 7.61 | 0.0383 | 0.0522 | 0.0781 | 0.0402 | 0.0534 | 0.0346 | 0.0355 | 0.0817 | 0.0507 | 0.161
NC(N)=NS(=O)(=O)c1ccc(Nc2c3ccccc3nc3c(C(=O)NCCO)cccc23)cc1 | – | > 100 | – | – | – | – | – | – | – | – | 29.8 | 19.9 | 20.3 | 24.6 | 17.2 | 35.1 | 22.2 | 21 | 20.1 | 18
Cc1cc(-c2nc(C(=O)Nc3cc4oc(N5CCOCC5)nc4nc3N3CC[C@@H](O)C3)co2)ccn1 | > 100 | > 100 | > 100 | > 100 | > 100 | > 100 | > 100 | > 100 | > 100 | 68.7 | 38.7 | 29.4 | 56.2 | 45.6 | 28.4 | 41.2 | 26.9 | 68.7 | 28.9 | 14.9
O=[N+]([O-])c1ccc2c(c1)/C(=N/N=C1c3ccccc3Cc3ccccc31)c1cc([N+](=O)[O-])cc([N+](=O)[O-])c1-2 | 3.24 | 5.55 | 9.05 | 6.42 | 9.38 | 9.41 | 10.2 | 3.41 | 25.3 | 4.41 | – | – | – | – | – | – | – | – | – | –
Fc1[nH]nc2ccc([C@@H]3Nc4ccc5[nH]ncc5c4[C@H]4C5CCC(C5)[C@@H]34)cc12 (stereo not given in full) | 16.4 | 16.5 | 16.2 | 17.5 | 17.3 | 13.9 | 13.6 | 15.6 | 12.1 | 14.1 | 2.46 | 0.514 | 1.54 | 1.97 | 0.472 | 0.324 | 1.12 | 2.82 | 1.03 | 2.83
OC1CSSC1Cn1cnc2c(Nc3ccc(OCc4cccc(F)c4)c(Cl)c3)ncnc21 (stereo not given) | 12 | 13.9 | 4.64 | 4.53 | 4.54 | 1.5 | 1.87 | 11.9 | 1.88 | 6.55 | 3.71 | 0.656 | 0.591 | 0.986 | 1.17 | 0.604 | 0.749 | 5.67 | 0.742 | 1.45
COc1cccc(C2c3cc4c(cc3OC(C)(N3CCCC3)C2C)OCO4)c1O (stereo not given) | 40 | 21.2 | > 100 | 18.4 | > 100 | 18.3 | > 43.5 | > 56 | 75 | 56.4 | – | – | – | – | – | – | – | – | – | –
CN1CCN(C2=NCCO2)CC1 | > 100 | > 100 | > 100 | > 100 | > 100 | > 100 | > 100 | > 100 | > 100 | > 100 | – | – | – | – | – | – | – | – | – | –
CCOC(=O)/C=C/CC(C)(C)CCOC(C)=O | > 10 | > 10 | > 10 | > 10 | > 10 | > 10 | > 10 | > 10 | > 10 | > 10 | – | – | – | – | – | – | – | – | – | –
NS(=O)(=O)OC[C@@H]1C[C@@H](n2ccc3c(NC4CCc5ccccc54)ncnc32)C[C@@H]1O (stereo not given in full) | 36.7 | 55.9 | > 100 | > 100 | > 77.6 | 32.3 | > 100 | 29.7 | 47.7 | > 100 | 0.823 | 0.324 | 3.94 | 10.1 | 3.34 | 0.405 | 17 | 0.671 | 0.797 | 11
C[N+](C)(C)CC(=O)N/N=C(/CC(=O)CC(C1=C(O)c2ccccc2OC1)c1ccccc1)C(=O)Nc1cccc(Cl)c1 (stereo not given) | > 100 | > 100 | > 100 | > 100 | > 100 | > 100 | > 100 | > 100 | > 100 | > 100 | – | – | – | – | – | – | – | – | – | –
Cc1ccc(Cl)c2c(N=Nc3ccccc3[N+](=O)[O-])c(O)[nH]c12 | > 100 | > 100 | > 100 | > 100 | > 100 | > 100 | > 100 | > 100 | > 100 | > 100 | – | – | – | – | – | – | – | – | – | –
CN(C)c1ccc(/C=C\C2=[N+](C)c3ccccc3C2(C)C)cc1 | > 41.1 | > 100 | 21.5 | 18.8 | 19.1 | > 100 | – | > 41.2 | > 62 | > 100 | 0.614 | 0.453 | 0.51 | 2.12 | 0.399 | 1.77 | 0.195 | 2.48 | 1.06 | 3.74
Cc1cnc(NCCCN(C)C)c2c1[nH]c1ccc3cc(O)ccc3c12 | 1.96 | 5.88 | 2.86 | 2.83 | 1.97 | 3.68 | 2.21 | 1.84 | 2.5 | 5.8 | – | – | – | – | – | – | – | – | – | –
O=C(CCNC12CC3CC(CC(C3)C1)C2)c1ccccc1 | 45 | 39.2 | 75.4 | 69.8 | 35.6 | 36.5 | 50.5 | 31.6 | > 100 | 77.6 | – | – | – | – | – | – | – | – | – | –
Fc1ccc(NC(=S)SCc2ccc3c(c2)OCO3)cc1F | 35.9 | 77.3 | 13 | > 100 | > 100 | 59 | 76.6 | 72.4 | 44.6 | 37.9 | – | – | – | – | – | – | – | – | – | –
COc1ccc(CC2c3cc4c(cc3CCN2C)OCO4)c(C=O)c1OC (stereo not given) | > 100 | > 100 | > 100 | > 100 | > 100 | > 100 | > 100 | > 100 | > 100 | > 100 | – | – | – | – | – | – | – | – | – | –
Cc1nc2sccn2c1-c1csc(Nc2ccccc2Cl)n1 | 45.2 | 53.2 | > 100 | 27 | 25.9 | 17.1 | 37.5 | 15.7 | 44.4 | 33.6 | 6.05 | 3.32 | 6.24 | 3.33 | 3.22 | 0.586 | 4.09 | 3.47 | 2.98 | 3.21
O=C(Nc1ccc(-n2ccc3c(NC(=O)c4ccccc4)nccc32)cc1)c1ccc(Cl)c(C(F)(F)F)c1 | 15.9 | 2.17 | 14.1 | 15 | 1.44 | > 17.2 | 24.8 | 9.93 | 8.45 | > 50 | 0.528 | 0.128 | 4.99 | 5.09 | 0.335 | 0.213 | 2.56 | 0.606 | 0.318 | 2.86
Nc1ccccc1C#C/C=C\C#Cc1ccccc1OC(F)(F)F | 47.2 | 23.2 | 36.8 | 24.7 | 16 | > 100 | > 100 | 21 | > 100 | 22.8 | 6.7 | 1.11 | 7.55 | 5.34 | 3.96 | 2.31 | 5.98 | 5.48 | 5.99 | 4.63
COc1cc2c(c(OC)c1OC)-c1ccc(NNC(N)=S)c(=O)cc1[C@@H](NC(C)=O)CC2 | > 100 | > 100 | > 100 | 3.52 | > 100 | > 100 | > 100 | > 100 | > 100 | > 100 | 0.863 | 0.434 | 0.777 | 0.327 | 0.365 | 0.348 | 0.29 | 0.867 | 3.12 | > 25.9
Nc1c(C(=O)c2cccc(CCS(N)(=O)=O)c2)cnn1-c1ccc(F)cc1 | > 25 | > 25 | > 25 | > 25 | > 25 | > 25 | > 25 | > 25 | > 25 | > 25 | > 25 | > 25 | > 25 | > 25 | > 25 | > 25 | > 25 | > 25 | > 25 | > 25
CCOC1Oc2ccccc2C(=O)/C1=C/Nc1ccc(C(C)=O)cc1 (stereo not given) | 45 | 62.2 | > 100 | 47.8 | 72.6 | 40.5 | 93.3 | 25.4 | > 100 | > 100 | 16.3 | 19.2 | 44.8 | 20 | 26.7 | 16.1 | 25.4 | 6.56 | 50.3 | 27.9
COc1cccc(-c2cc(-c3cccc(NS(C)(=O)=O)c3)nc(N)c2C#N)c1O | > 100 | > 100 | > 100 | > 100 | > 100 | > 100 | > 100 | > 100 | > 100 | > 52.7 | 0.351 | 0.153 | 0.571 | 0.815 | 0.0904 | 0.0508 | 0.111 | 0.375 | 0.293 | 0.208
CCOC(=O)Cn1c(C(F)(F)F)nc2nc(Cl)c(Cl)nc21 | > 100 | > 69.5 | > 100 | > 100 | > 100 | > 100 | > 100 | > 100 | > 100 | 10.9 | – | – | – | – | – | – | – | – | – | –
C=C(C)C(OC)C(O)CC1(C)CC(O)CC(C)(C2CCC3OC(C4(C)CCC(Br)C(C)(C)O4)CCC3(C)O2)O1 (stereo not given) | 50.2 | 55.8 | 50 | 43.8 | 45.4 | > 68.5 | 32.4 | 33.6 | > 58 | 34.4 | 21.1 | 21.3 | 23.6 | 20.3 | 21 | 20.7 | 15.4 | 17.8 | 21 | 15.7
Cc1ccc([N+](=O)[O-])cc1NC1=NCCO1 | > 100 | > 100 | > 100 | > 100 | > 100 | > 100 | > 100 | > 100 | > 100 | > 100 | – | – | – | – | – | – | – | – | – | –
